“Also recorded” adds a separate entry of the source.
Experiments:
HEK293T cells [1] = experiment: Cytotoxicity of DFAME, MTT assay after illumination; assay type: cell-based; conditions: 10 μM, illuminated for 10 minutes
Experimental: FIG. 31A is a graph showing the results of an experiment evaluating fluorescence of DFAME when mixed with cells. An important criteria for a fluorogenic dye is that it must have very low fluorescence when mixed with cells. To test this, 10 μM DFAME was incubated with cultured HEK293T cells and the fluorescence intensity of the DFAME-incubated cells was measured. […] Although the background fluorescence in cells induced by DFAME (n=48 cells) was higher than DFHO (n=47 cells) or DFHBI-1T (n=44 cells), it was reasoned that DFAME could be used if enough fluorogenic aptamer is used in cells. Data were collected from three independent cell cultures. Values are means±s.d. FIG. 31B is a graph showing the cytotoxicity of DFAME. To apply a fluorogenic dye in cells, it is critical that this dye has minimal cytotoxicity. To test the cytotoxicity of DFAME, HEK293T cells were first incubated with 10 μM DFAME, then illuminated for 10 minutes using a Nikon Intensilight C-HGFIE 130 W mercury lamp with the TRITC filter set. Control cells were illuminated under identical conditions either with 0.2% DMSO (illuminated with the TRITC filter set) or 10 μM malachite green (illuminated with the Cy5 filter set). […] MTT absorbance readings were performed at 550 nm with 650 nm absorbance used for background subtraction. […]

[2] = Photophysical properties of DFAME, DFHO and RNA complexes (Beetroot study); assay type: physicochemical
Description: dsDNA encoding the top-performing RNA sequences from the brightest bacterial colonies was PCR amplified from the purified plasmids. PCR products were subjected to gel electrophoresis in 2% TBE gel, and the PCR product band corresponding to the correct size was excised from gel and further purified with PCR purification columns (Qiagen) and in vitro transcribed using an AmpliScribe T7-Flash Transcription Kit (Epicenter). The resulting RNA was then purified using Zymo RNA concentrator columns and quantified by absorbance using a Thermo Scientific NanoDrop 2000 spectrophotometer. For absorption, excitation and emission spectra measurements, “excess RNA” conditions and limiting amount of fluorophore was used to ensure that no free fluorophore contributes to the absorbance or fluorescence signal. The RNA concentration used for fluorescence and absorbance measurements was 20 μM and 50 μM, respectively, while the dye concentration was 2 μM and 5 μM, respectively. All in vitro RNA properties were measured in 40 mM HEPES pH 7.4, 100 mM KCl, 5 mM MgCl2 buffer, unless specified.
Extinction coefficient was calculated based on Beer's law. Briefly, absorbance spectrum of 5 μM DFAME, Beetroot-DFAME, or Corn-DFAME was measured using a Thermo Scientific NanoDrop 2000 spectrophotometer with cuvette capability. Extinction coefficient was calculated by dividing peak absorbance value by the concentration of fluorophore alone, or RNA-fluorophore complex.
Quantum yield was determined by comparing the integral of the emission spectra for DFAME or RNA-DFAME complex with the corresponding integral obtained from Rhodamine B solution. These integral values were plotted against the absorbance values corresponding to the excitation wavelength. The slopes from the above plots were calculated for determining quantum yield. Quantum yield was calculated by multiplying the quantum yield of Rhodamine B by the slope of DFAME or RNA-DFAME complex, then divided by the slope of Rhodamine B.

[3] = Fluorescence activation of DFAME by aptamers in vitro; assay type: biochemical; conditions: in vitro
Experimental: (§1) To test whether Beetroot can activate DFHO, the fluorescence emission spectrum of the Beetroot-DFHO complex was measured. In brief, 20 μM Beetroot and 2 μM DFHO were mixed, and the fluorescence emission of the Beetroot-DFHO complex was measured. […] To test whether Beetroot can activate DFHBI-1T, the fluorescence emission spectrum of the Beetroot-DFHBI-1T complex was measured using the same protocol described in FIG. 32A. […] To test whether Beetroot can activate BI, the fluorescence emission spectrum of the Beetroot-BI complex was measured using the same protocol described in FIG. 32A. […] To test whether Corn can activate DFAME, the fluorescence emission spectrum of the Corn-DFAME complex was measured using the same protocol described in FIG. 32A.
The eluted RNAs were then ethanol precipitated, reverse transcribed, PCR amplified and in vitro transcribed to yield the pool for the next SELEX round. The presence of fluorescent RNA species in each pool was assessed by mixing 20 μM RNA and 10 μM DFAME and measuring fluorescence emission of this solution on a fluorometer in comparison with the fluorophore alone. At this point, RNAs were cloned into bacterial expression plasmids for FACS-based screening.
dsDNA encoding the top-performing RNA sequences from the brightest bacterial colonies was PCR amplified from the purified plasmids. […] The resulting RNA was then purified using Zymo RNA concentrator columns and quantified by absorbance using a Thermo Scientific NanoDrop 2000 spectrophotometer. For absorption, excitation and emission spectra measurements, “excess RNA” conditions and limiting amount of fluorophore was used to ensure that no free fluorophore contributes to the absorbance or fluorescence signal. The RNA concentration used for fluorescence and absorbance measurements was 20 μM and 50 μM, respectively, while the dye concentration was 2 μM and 5 μM, respectively. All in vitro RNA properties were measured in 40 mM HEPES pH 7.4, 100 mM KCl, 5 mM MgCl2 buffer, unless specified.

[4] = Fluorescence emission of Beetroot with DFHO; assay type: biochemical; conditions: 20 μM Beetroot, 2 μM DFHO
Experimental: as §1

[5] = Fluorescence emission of Beetroot with DFHBI-1T; assay type: biochemical; conditions: 20 μM RNA, 2 μM dye
Experimental: as §1

[6] = Fluorescence emission of Beetroot with BI; assay type: biochemical; conditions: 20 μM RNA, 2 μM dye
Experimental: as §1

Beetroot = Beetroot homodimer dissociation, serial dilution and non-denaturing gel electrophoresis; assay type: binding; conditions: dilution 1000 nM to 1.4 nM, 20° C., 12 hours; read-out: Homodimerization dissociation constant (Kd)
Experimental: FIGS. 33A-33C provide the dissociation constant (Kd) of Beetroot homodimer. […] These RNAs were incubated at 20° C. for 12 hours and then analyzed using non-denaturing gel electrophoresis (FIG. 33A). The fraction of Beetroot monomer (FIG. 33B) and Beetroot dimer (FIG. 33C) were quantified after SYBR Gold staining. […] The RNA band marked with an asterisk (*) reflects an RNA side product from in vitro transcription. The same side product band was also observed in FIGS. 27B-27C. Quantification shown in […] is based on two independent experiments. FIG. 33D are images showing genetic encoding of simple macromolecular RNA assemblies in cells using Corn when circular RNAs containing 3 and 5 copies of Corn were expressed in HEK293T cells. Clusters of these Corn-containing RNAs were observed as large intracellular puncta. Data shown here is a representative image from three independent cell cultures. Scale bar, 20 μm. FIG. 33E is a graph showing the quantification of the fraction of Corn and Beetroot in the cell that accumulates in puncta. As the valency of Corn increases from three to five, the fraction of Corn participating in the RNA assembly increases from 28±12% to 57±14%. Compared to 5× Corn, a fraction of 27±11% of 5× Beetroot are participating in the Beetroot RNA assembly. Values are means±s.d. FIG. 33F is a graph showing quantification of RNA assembly size in cells. […]

Corn = experiment: Beetroot-Corn heterodimer formation, nondenaturing electrophoretic analysis; assay type: binding; conditions: equimolar mixture, heat-denatured and cooled
Experimental: FIG. 27B is an image showing that Beetroot is a dimer in vitro. To test this, nondenaturing electrophoretic analysis was performed on a wild-type Beetroot and a mutant Beetroot with mutations in the G-quadruplex that are expected to disrupt any putative dimer formation. […] The RNA band marked with an asterisk (*) reflects an RNA side product from in vitro transcription. […] To test whether Beetroot and Corn can form heterodimers in vitro, nondenaturing electrophoretic analysis was performed on Beetroot, Corn, and a Beetroot-Corn equimolar mixture to measure heterodimer formation. If Beetroot (107 nt) and Corn (250 nt) are orthogonal dimers, two distinct molecular species would be expected: dimeric Beetroot and dimeric Corn. On the other hand, if Beetroot-Corn heterodimers are formed, a third molecular species, reflecting a Beetroot-Corn heterodimer, with a molecular weight in between dimeric Beetroot and dimeric Corn, would be expected. […] In-gel staining with DFAME and DFHO also confirmed the identity of the putative dimeric species. The RNA band marked with an asterisk (*) reflects an RNA side product from in vitro transcription. A final concentration of 350 nM RNA was used in each lane. […]

HEK293T cells [7] = experiment: Imaging Beetroot in HEK293T cells; assay type: cell-based; conditions: Tornado circular RNA, tRNA or F30-tRNA scaffold, 10 μM DFAME, 5 mM MgCl2
Experimental: FIGS. 35A-35B show imaging Beetroot in HEK293T cells. To test whether Beetroot could be imaged in HEK293T cells, Beetroot was expressed in Tornado. […] FIG. 35B are images showing HEK293T cells which were transiently transfected with Beetroot-expressing plasmids. About 36 hours after transfection, these transfected HEK293T cells were incubated with 10 μM DFAME and 5 mM MgCl2 for 1 hour prior to imaging. Detectable levels of red fluorescence were not observed in HEK293T cells. Data shown here is a representative image from three independent cell cultures. Scale bar, […].
Prior to imaging experiments, HEK293T cells were incubated with 1 μl of Hoechst 33342 (Thermo Fisher Scientific, H3570) per 2 ml of imaging media (phenol red-free Dulbeco's modified Eagle's medium (Thermo Fisher Scientific 31053-028) supplemented with 10% fetal bovine serum (Corning 35-010-CV), 100 U ml-1 of penicillin and […] of streptomycin, 1× GlutaMAX (Thermo Fisher Scientific, 35050-061) and 1 mM sodium pyruvate (Thermo Fisher Scientific, 11360-070)). For imaging experiments of RNA-fluorophore complex, HEK293T cells were incubated with imaging media supplemented with a final concentration of 10 μM fluorophore (DFHO or DFAME) and 5 mM MgCl2 for one hour prior to imaging.

Row | Molecule | Cytotoxicity (HEK293T cells [1]) | Emission maximum [2] [nm] | Excitation maximum [2] [nm] | Fluorescence in solution ([2]; 10 μM) | Extinction coefficient ([2]; DFAME alone, at 514 nm, pH 7.4 buffer) | Brightness (extinction coefficient × quantum yield) ([2]; relative to Corn-DFHO) | Fluorescence quantum yield ([2]; versus Rhodamine B) | Fold fluorescence enhancement of DFAME [3] | Binding and activation of DFHO fluorescence [4] | Binding and activation of DFHBI-1T fluorescence [5] | Binding and activation of BI fluorescence [6] | Kd (Beetroot) [nM] | Heterodimer formation with Corn (Corn) | Red fluorescence in cells (HEK293T cells [7])
1 | COC(=O)/C=C/C1=NC(=C\c2cc(F)c(O)c(F)c2)/C(=O)N1C [DFAME, methyl 3-((Z)-4-(3,5-difluoro-4-hydroxybenzylidene)-1-methyl-5-oxo-4,5-dihydro-1H-imidazol-2-yl)acrylate] | low cytotoxicity | 641 | 508 | very low red fluorescence | 32,500 M^−1cm^−1 | 1.3 | 0.0029 |  |  |  |  |  |  | 
2 | Beetroot: red-fluorescent dimeric fluorogenic RNA aptamer binding DFAME, SEQ ID NO: 96 (GUUAGGCAGAGGUGGGUGGUGUGGAGGAGUAUCUGUC; RNA, backbone not given here) |  |  |  |  |  |  |  | approximately 40 fold | weakly binds and activates; also recorded: only weakly bind and activate | cannot bind and activate | cannot bind and activate | < 1 | no mixed Corn-Beetroot heterodimers | not observed

Source: US20250043290A1, “RNA SEQUENCES THAT INDUCE FLUORESCENCE OF SMALL MOLECULE FLUOROPHORES, MOLECULAR COMPLEXES, SENSORS, AND METHODS OF USE THEREOF” (CORNELL UNIVERSITY, priority 2021, published 2025)
